Measurements: patent US6525001B1, “Substituted pyrimidine and pyridine herbicides” (Mid-American Commercialization Corporation, priority 1997, dated 2003)

Experiments:
Assay type in all cases: in vivo
Parameters in all cases: key: 0 is no effect; 10 is complete control
[1] = system: giant foxtail (Setaria faberii); experiment: Test B pre-/postemergence
Method in brief: (§1)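 Response scores run from 0, meaning no effect, to 10, meaning complete control, assigned by eye relative to controls twelve to sixteen days after spraying. Treatment was both preemergence on planted seed and postemergence on plants at the 1- to 4-leaf stage.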

[2] = system: rape (Brassica napus); experiment: Test B pre-/postemergence
Method in brief: as §1

[3] = system: momingglory (Ipomoea hederacea); experiment: Test B pre-/postemergence
Method in brief: as §1

[4] = system: crabgrass (Digitaria sanguinalis); experiment: Test B pre-/postemergence; settings: for Crabgrass plant response rating: Preemergence
Method in brief: as §1

[5] = system: wheat (Triticum aestivum); experiment: Test B pre-/postemergence
Method in brief: as §1

[6] = system: wild oat (Avena fatua); experiment: Test B pre-/postemergence
Method in brief: as §1

[7] = system: bedstraw (Galium aparine); experiment: Test B pre-/postemergence; settings: for Bedstraw plant response rating: Preemergence
Method in brief: as §1

[8] = system: pigweed (Amaranthus retroflexus); experiment: Test B pre-/postemergence
Method in brief: as §1

[9] = system: purple nutsedge (Cyperus rotundus); experiment: Test B pre-/postemergence
Method in brief: as §1

[10] = system: soybean (Glycine max); experiment: Test B pre-/postemergence
Method in brief: as §1

[11] = system: cocklebur (Xanthium strumarium); experiment: Test B pre-/postemergence; settings: for Cocklebur plant response rating: Preemergence
Method in brief: as §1

[12] = system: blackgrass (Alopecurus myosuroides); experiment: Test B pre-/postemergence; settings: for Blackgrass plant response rating: Preemergence
Method in brief: as §1

[13] = system: corn (Zea mays); experiment: Test B pre-/postemergence; settings: for Corn plant response rating: Preemergence
Method in brief: as §1

[14] = system: velvetleaf (Abutilon theophrasti); experiment: Test B pre-/postemergence
Method in brief: as §1

[15] = system: broadleaf signalgrass (Brachiaria decumbens); experiment: Test B pre-/postemergence; settings: for B. signalgrass plant response rating: Preemergence
Method in brief: as §1

[16] = system: sugar beet (Beta vulgaris); experiment: Test B pre-/postemergence
Method in brief: as §1

[17] = system: bamyardgrass (Echinochloa crus-galli); experiment: Test B flood test
Method in brief: (§2)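 Each value is a visual injury score relative to controls, with 10 meaning complete control and 0 no effect. Evaluation took place twelve to sixteen days after the 2-leaf-stage plants were treated and kept in the greenhouse.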

[18] = system: smallflower flatsedge (Cyperus difformis); experiment: Test B flood test
Method in brief: as §2

[19] = system: duck salad (Heteranthera limosa); experiment: Test B flood test
Method in brief: as §2

[20] = system: rice (Oryza sativa); experiment: Test B flood test
Method in brief: as §2

[21] = Rate 250 g/ha, Postemergence (so in the source)
[22] = Rate 62 g/ha, Postemergence (flood test)
[23] = Rate 125 g/ha, Postemergence, flood test
[24] = Rate 250 g/ha, Postemergence (flood test species)
[25] = Rate 125 g/ha, Postemergence section (flood test species)

With `Cc1cnc(-c2ccccc2F)nc1Cc1cccc(C(F)(F)F)c1` [Compound 26] the “Plant response rating, Giant foxtail” value ([1]; Rate 62 g/ha, Postemergence) was 1, the “Giant foxtail plant response rating” value ([1]; Rate 62 g/ha, Preemergence) was 0 and the “Giant foxtail plant response rating” value ([1]; Rate 125 g/ha, Postemergence) was 1. For the same molecule, the “Giant foxtail plant response rating” value ([1]; Rate 125 g/ha, Preemergence) was 1, the “Plant response rating, Giant foxtail” value ([1]; Rate 250 g/ha, Postemergence) was 1 and the “Plant response rating, Giant foxtail” value [1, 21] was 1. For the same molecule, the “Plant response rating, Rape” value ([2]; Rate 62 g/ha, Postemergence) was 3, the “Rape plant response rating” value ([2]; Rate 62 g/ha, Preemergence) was 0 and the “Rape plant response rating” value ([2]; Rate 125 g/ha, Postemergence) was 6. For the same molecule, the “Rape plant response rating” value ([2]; Rate 125 g/ha, Preemergence) was 0, the “Plant response rating, Rape” value ([2]; Rate 250 g/ha, Postemergence) was 6 and the “Plant response rating, Rape” value [2, 21] was 0. For the same molecule, the “Plant response rating, Morningglory” value ([3]; Rate 62 g/ha, Postemergence) was 3, the “Morningglory plant response rating” value ([3]; Rate 62 g/ha, Preemergence) was 0 and the “Morningglory plant response rating” value ([3]; Rate 125 g/ha, Postemergence) was 3. The “Morningglory plant response rating” value ([3]; Rate 125 g/ha, Preemergence) was 0, the “Plant response rating, Morningglory” value ([3]; Rate 250 g/ha, Postemergence) was 3 and the “Plant response rating, Morningglory” value [3, 21] was 0. For the same molecule, the “Plant response rating, Crabgrass” value ([4]; Rate 62 g/ha, Postemergence) was 1, the “Crabgrass plant response rating” value ([4]; Rate 62 g/ha) was 0 and the “Plant response rating, Crabgrass” value ([4]; Rate 125 g/ha, Postemergence) was 1. The “Crabgrass plant response rating” value ([4]; Rate 125 g/ha) was 0, the “Plant response rating, Crabgrass” value ([4]; Rate 250 g/ha, Postemergence) was 1 and the “Plant response rating, Crabgrass” value [4, 21] was 1. For the same molecule, the “Plant response rating, Wheat” value ([5]; Rate 62 g/ha, Postemergence) was 0, the “Wheat plant response rating” value ([5]; Rate 62 g/ha, Preemergence) was 0 and the “Wheat plant response rating” value ([5]; Rate 125 g/ha, Postemergence) was 0. The “Plant response rating, Wheat” value ([5]; Rate 125 g/ha, Preemergence) was 0, the “Plant response rating, Wheat” value ([5]; Rate 250 g/ha, Postemergence) was 0 and the “Plant response rating, Wheat” value [5, 21] was 0. The “Plant response rating, Wild oats” value ([6]; Rate 62 g/ha, Postemergence) was 0, the “Wild oats plant response rating” value ([6]; Rate 62 g/ha, Preemergence) was 0 and the “Wild oats plant response rating” value ([6]; Rate 125 g/ha, Postemergence) was 0. The “Plant response rating, Wild oats” value ([6]; Rate 125 g/ha, Preemergence) was 0, the “Plant response rating, Wild oats” value ([6]; Rate 250 g/ha, Postemergence) was 0 and the “Plant response rating, Wild oats” value [6, 21] was 0. The “Plant response rating, Bedstraw” value ([7]; Rate 62 g/ha, Postemergence) was 1, the “Bedstraw plant response rating” value ([7]; Rate 62 g/ha) was 0 and the “Plant response rating, Bedstraw” value ([7]; Rate 125 g/ha, Postemergence) was 3. For the same molecule, the “Bedstraw plant response rating” value ([7]; Rate 125 g/ha) was 0, the “Plant response rating, Bedstraw” value ([7]; Rate 250 g/ha, Postemergence) was 6 and the “Plant response rating, Bedstraw” value [7, 21] was 0. The “Plant response rating, Redroot pigweed” value ([8]; Rate 62 g/ha, Postemergence) was 6, the “Redroot pigweed plant response rating” value ([8]; Rate 62 g/ha, Preemergence) was 0 and the “Redroot pigweed plant response rating” value ([8]; Rate 125 g/ha, Postemergence) was 6. The “Redroot pigweed plant response rating” value ([8]; Rate 125 g/ha, Preemergence) was 0, the “Plant response rating, Redroot pigweed” value ([8]; Rate 250 g/ha, Postemergence) was 8 and the “Plant response rating, Redroot pigweed” value [8, 21] was 4. For the same molecule, the “Plant response rating, Nutsedge” value ([9]; Rate 62 g/ha, Postemergence) was 0, the “Nutsedge plant response rating” value ([9]; Rate 62 g/ha, Preemergence) was 0 and the “Nutsedge plant response rating” value ([9]; Rate 125 g/ha, Postemergence) was 0. For the same molecule, the “Nutsedge plant response rating” value ([9]; Rate 125 g/ha, Preemergence) was 0, the “Plant response rating, Soybean” value ([10]; Rate 62 g/ha, Postemergence) was 3 and the “Soybean plant response rating” value ([10]; Rate 62 g/ha, Preemergence) was 0. The “Soybean plant response rating” value ([10]; Rate 125 g/ha, Postemergence) was 3, the “Plant response rating, Soybean” value ([10]; Rate 125 g/ha, Preemergence) was 0 and the “Plant response rating, Soybean” value ([10]; Rate 250 g/ha, Postemergence) was 5. For the same molecule, the “Plant response rating, Soybean” value [10, 21] was 0, the “Plant response rating, Cocklebur” value ([11]; Rate 62 g/ha, Postemergence) was 2 and the “Cocklebur plant response rating” value ([11]; Rate 62 g/ha) was 0. For the same molecule, the “Plant response rating, Cocklebur” value ([11]; Rate 125 g/ha, Postemergence) was 2, the “Cocklebur plant response rating” value ([11]; Rate 125 g/ha) was 0 and the “Plant response rating, Cocklebur” value ([11]; Rate 250 g/ha, Postemergence) was 3. The “Plant response rating, Cocklebur” value [11, 21] was 0, the “Plant response rating, Blackgrass” value ([12]; Rate 62 g/ha, Postemergence) was 0 and the “Blackgrass plant response rating” value ([12]; Rate 62 g/ha) was 0. For the same molecule, the “Plant response rating, Blackgrass” value ([12]; Rate 125 g/ha, Postemergence) was 1, the “Blackgrass plant response rating” value ([12]; Rate 125 g/ha) was 0 and the “Plant response rating, Blackgrass” value ([12]; Rate 250 g/ha, Postemergence) was 1. For the same molecule, the “Plant response rating, Blackgrass” value [12, 21] was 0, the “Plant response rating, Corn” value ([13]; Rate 62 g/ha, Postemergence) was 1 and the “Corn plant response rating” value ([13]; Rate 62 g/ha) was 0. The “Plant response rating, Corn” value ([13]; Rate 125 g/ha, Postemergence) was 1, the “Corn plant response rating” value ([13]; Rate 125 g/ha) was 0 and the “Plant response rating, Corn” value ([13]; Rate 250 g/ha, Postemergence) was 1. For the same molecule, the “Plant response rating, Corn” value [13, 21] was 0, the “Plant response rating, Velvetleaf” value ([14]; Rate 62 g/ha, Postemergence) was 1 and the “Velvetleaf plant response rating” value ([14]; Rate 62 g/ha, Preemergence) was 0. The “Velvetleaf plant response rating” value ([14]; Rate 125 g/ha, Postemergence) was 1, the “Plant response rating, Velvetleaf” value ([14]; Rate 125 g/ha, Preemergence) was 0 and the “Plant response rating, Velvetleaf” value ([14]; Rate 250 g/ha, Postemergence) was 2. The “Plant response rating, Velvetleaf” value [14, 21] was 0, the “Plant response rating, B. signalgrass” value ([15]; Rate 62 g/ha, Postemergence) was 1 and the “B. signalgrass plant response rating” value ([15]; Rate 62 g/ha) was 0. For the same molecule, the “Plant response rating, B. signalgrass” value ([15]; Rate 125 g/ha, Postemergence) was 1, the “B. signalgrass plant response rating” value ([15]; Rate 125 g/ha) was 0 and the “Plant response rating, B. signalgrass” value ([15]; Rate 250 g/ha, Postemergence) was 2. For the same molecule, the “Plant response rating, B. signalgrass” value ([15]; Rate 250 g/ha, Postemergence as printed in head r139 (second section for compounds 26-50)) was 1, the “Plant response rating, Sugarbeets” value ([16]; Rate 62 g/ha, Postemergence) was 3 and the “Sugarbeets plant response rating” value ([16]; Rate 62 g/ha, Preemergence) was 0. For the same molecule, the “Sugarbeets plant response rating” value ([16]; Rate 125 g/ha, Postemergence) was 8, the “Plant response rating, Sugarbeets” value ([16]; Rate 125 g/ha, Preemergence) was 0 and the “Plant response rating, Sugarbeets” value ([16]; Rate 250 g/ha, Postemergence) was 8. The “Plant response rating, Sugarbeets” value [16, 21] was 0, the “Plant response rating, Barnyardgrass” value [17, 22] was 0 and the “Plant response rating, Barnyardgrass” value [17, 23] was 0. The “Plant response rating, Barnyardgrass” value [17, 24] was 2, the “Plant response rating, S. Flatsedge” value [18, 22] was 0 and the “S. Flatsedge plant response rating” value [18, 25] was 1. For the same molecule, the “Plant response rating, S. Flatsedge” value [18, 24] was 2, the “Plant response rating, Ducksalad” value [19, 22] was 0 and the “Plant response rating, Ducksalad” value [19, 23] was 0. The “Plant response rating, Ducksalad” value [19, 24] was 0, the “Plant response rating, Rice” value [20, 22] was 0 and the “Rice plant response rating” value [20, 25] was 0. The “Plant response rating, Rice” value [20, 24] was 0.
